Results taken from patent US12427103B2, “Cosmetic composition containing Hibiscus manihot l. extract and method for preparing the same” (ALL IN ON Co., Ltd, priority 2022, dated 2025).

Legend:
RAW264.7 cells = experiment: Anti-inflammatory effect: nitric oxide (NO) formation inhibition, GRIESS method, LPS stimulus; assay type: cell-based, mouse; conditions: RAW264.7, 10 ppm, LPS 1 μg, 24 hours
Description: An anti-inflammatory effect was confirmed with respect to above Examples 1 to 4 and Comparative Examples 1 to 8.
In order to confirm the anti-inflammatory effect and skin trouble alleviation effect of Examples 1 to 4 and Comparative Examples 1 to 8, an experiment on nitric oxide (NO) formation inhibitory power was performed with a GRIESS method using RAW264.7 cell lines (ATCC number: CRL-2278).
Specifically, RAW264.7 cells, which are mouse macrophages, were subcultured several times and placed in a 24-well plate so that 3×10^5 cells were put into each well, and then incubated for 24 hours. Then, Examples 1 to 4 and Comparative Examples 1 to 8 were replaced with a diluted cell medium at a concentration of 10 ppm. At this time, L-NMMA (L-NG-Monomethylarginine), a NO-production inhibitor, was treated together as a positive control and incubated for 30 minutes, and then 1 μg of lipopolysaccharide (LPS) was treated as a stimulus and cultured for 24 hours. 100 μl of the supernatant was transferred to a 96-well plate and reacted at room temperature for 10 minutes with the addition of 100 μl of GRIESS solution, so as to measure the absorbance at 540 nm, thereby determining an NO inhibitory effect of the compound of Formula 1, and the results are shown in table 4 below.

[1] = Antioxidant effect: free radical scavenging by DPPH method; assay type: biochemical; conditions: 30 minutes, 517 nm, based on vitamin C 0.1% as 100%
Description: An antioxidant effect experiment was performed to confirm an antioxidant effect of Examples 1 to 4 and Comparative Examples 1 to 8 through a free radical scavenging effect using a DPPH method according to a known method. 100 μl of Examples 1 to 4 and Comparative Examples 1 to 8 were dispensed into 96 microplates, and 10 μl of a 2,2-diphenyl-1-picrylhydrazyl (DPPH) solution dissolved in ethanol to reach 1 mM was added thereto. After a reaction in 30 minutes later at room temperature, absorbance was measured at 517 nm to measure a free radical scavenging activity. An experiment was performed with vitamin C at a concentration of 0.1% as a control group along with the compositions of Examples 1 to 4 and Comparative Examples 1 to 8. The results are shown in table 3 based on the free radical scavenging effect of vitamin C as 100%.

SMILES: CNC(=N)NCCC[C@H](N)C(=O)O [L-NMMA, L-NG-Monomethylarginine]
- NO production inhibition rate (%) (RAW264.7 cells): 39.14%

SMILES: O=C1O[C@H]([C@@H](O)CO)C(O)=C1O [vitamin C]
- Free radical scavenging effect (%) [1]: 100%
